Measured values taken from patent publication US11253593B2, “Granulated anthelmintic preparations and delivery systems” (Argenta Innovation Limited, priority 2009, dated 2022).
Where two headings read alike, the source gives them in different places.

Legend:
[1] = in vivo
Method: A cross-over study was performed to determine the blood plasma concentrations of abamectin, oxfendazole and levamisole following oral treatment with reconstituted granule product containing these three anthelmintics.
Eight female romney sheep of similar age and body weight were used. The criteria for selection was to include animals that had not been dosed with a persistent anthelmintic formulation within 6 months of selection for the trial. Persistent anthelmintics include slow release capsules (e.g. Bionic), injectable or oral forms of moxidectin and closantel. Sheep were acclimated to the study site for 14 days before treatment.
Each sheep was randomly assigned to the treatment group and received one treatment and then the alternate treatment 21 days later.
The study procedures were as follows: • sheep were weighed using calibrated scales on Day −1 for weight ranking and allocation to treatment groups. […] Granules were weighed and added with the calculated volume of water to a 2 litre schott bottle and inverted a number of times until the granules were wetted and fully dispersed. On the morning of treatment the schott bottle was again gently inverted 3 or 4 times to ensure a homogeneous mix and approximately 100 mL was decanted from which the syringe was filled for dosing. • Treatments were administered on Day 0 and Day 21 at a dose volume of 1 ml/5 kg. Dosing was done using a 12 mL graduated syringe. Dose volume and time of administration was recorded and checked for each sheep. • Blood samples were collected before treatment, and after treatment at 0.5, 1, 2, 6, 8, 12, 15, 24 and 36 hrs.
Oxfendazole plasma levels are presented as two separate plasma metabolites: oxfendazole and fenbendazole, and the total of these two expressed as “total-oxfendazole”. All plasma metabolite units are presented as mg/kg

[2] = In-use stability, physico-chemical, of reconstituted dual active drug product; details: reconstituted drug product of 4.1; storage at 30 and 40° C. for 1 month
Method: The stability of reconstituted drug product was investigated after storage at 30 and 40° C. for 1 month.

[3] = In-use suspendability of reconstituted granule (oxfendazole as marker); assay type: physicochemical; details: reconstituted granule of 4.1 in water 1.1 kg/5 L
Method: The concentration of the reconstituted granule in water was 1.1 kg/5 L. Oxfendazole was chosen as a marker compound for drug suspension stability.
(Levamisole Fully Soluble)
2 h: At the top was 96 mg/g and at the bottom was 105.2 mg/g
4 h: At the top was 98 mg/g and at the bottom was 99 mg/g
4 days: At the top was 95.7 mg/g and at the bottom was 98 mg/g

[4] = Stability trial post mix of reconstituted abamectin liquid concentrate; assay type: physicochemical
Method: The stability of the reconstituted abamectin was investigated after storage at 20-25° C. for 4 days.

[5] = Chemical and physical stability of abamectin in reconstituted triple active formulation; assay type: physicochemical; details: reconstituted with water, triple active formulation 6.1; storage at 30 and 40° C. for 1 month
Method: When reconstituted with water, the sstability of abamectin in the reconstituted triple active formulation was investigated after storage at 30 and 40° C. for 1 month.

[6] = female, Romney, sheep, in vivo, po
[7] = oral 1 ml/5 kg, pooled mean of 8 sheep, oxfendazole comparison
[8] = oral 1 ml/5 kg, pooled mean of 8 sheep, total oxfendazole comparison

COC(=O)Nc1nc2ccc(Sc3ccccc3)cc2[nH]1 [fenbendazole]
Tmax, plasma fenbendazole (metabolite) [1, 6]: 12 h | Cmax, plasma fenbendazole (metabolite) ([1]; sheep, in vivo, po): 0.209 mg/kg

COC(=O)Nc1nc2cc([S+]([O-])c3ccccc3)ccc2[nH]1 (stereo not shown) [oxfendazole]
Cmax, plasma oxfendazole [1, 7]: 0.792 mg/kg | Tmax, plasma oxfendazole [1, 7]: 15 h | Cmax, plasma total oxfendazole (oxfendazole + fenbendazole) [1, 8]: 0.984 mg/kg | Tmax, plasma total oxfendazole (oxfendazole + fenbendazole) [1, 8]: 12 h | Chemical degradation [2]: no chemical degradation | Oxfendazole concentration at the bottom ([3]; 2 h): 105.2 mg/g | Oxfendazole concentration at the top ([3]; 2 h): 96 mg/g | Oxfendazole concentration at the bottom ([3]; 4 h): 99 mg/g | Oxfendazole concentration at the top ([3]; 4 h): 98 mg/g | Oxfendazole concentration at the bottom ([3]; 4 days): 98 mg/g | Oxfendazole concentration at the top ([3]; 4 days): 95.7 mg/g | Oxfendazole concentration, initial ([3]; initial): 100 mg/g

OCc1ccccc1 [benzyl alcohol]
Degradation after reconstitution [4]: some degradation

abamectin
Tmax, plasma abamectin ([1]; oral 1 ml/5 kg, pooled mean of 8 sheep, abamectin comparison): 24 h | Cmax, plasma abamectin ([1]; oral 1 ml/5 kg, pooled mean of 8 sheep, both cross-over phases, abamectin comparison): 0.017 mg/kg | Degradation after reconstitution ([4]; reconstituted liquid concentrate of Example 9, storage at 20-25° C. for 4 days): no degradation | Degradation of abamectin [5]: less than 2%

c1ccc([C@H]2CN3CCSC3=N2)cc1 [levamisole]
Tmax [1, 6]: 1 h | Cmax, plasma levamisole ([1]; sheep, in vivo, po): 1.445 mg/kg | Chemical degradation [2]: less than 2%
